Experimental data reported in patent US9809597B2, “Ganciclovir derivatives for modulating innate and adaptive immunity and for use in immunotherapy” (The Board of Trustees of the Leland Stanford Junior …, priority 2015, dated 2017).

Columns and labels:
[1] = system: BV-2 and primary microglia stimulated with IFNγ and LPS; test: RT-PCR of inflammatory transcripts in IFNγ/LPS stimulated microglia; format: cell-based, mouse; details: 200 μM GCV, 24 hours
Description: BV-2 mouse microglia cells were grown in DMEM+10% FBS and THP-1 human monocyte cells were grown in RPMI-40+10% FBS+0.05 mM β-mercaptoethanol at 37° C., 5% CO2. Adherent cells were split using 1×TrypLE (Gibco). For cellular assays, cells were treated with the following concentrations of drugs as indicated in the DMEM without serum: 100-200 μM ganciclovir, 10 ng/ml IFNγ (R&D systems), 100 ng/ml LPS (Sigma-Aldrich), 1-10 μM Fludarabine (Selleckchem), 1 μM Ruxolitinib (Selleckchem), 1 μM TG-101348 (Selleckchem), 1 μM Amlexanox (Tocris bioscience) unless otherwise noted. All experiments were run in triplicates and replicated at least 3 times with cell lines and at least twice with primary microglia. Average data are shown for cell lines and representative data are shown for primary cells. Secreted signaling proteins were measured in supernatants from cultured cells stimulated with GCV and conditioned for 24 hours in the absence of serum using two independent Luminex arrays (Human Immune Monitoring Center, Stanford and Eve technologies, Canada). Nitrite assay was performed on conditioned culture supernatants of cells stimulated with drugs for 24 hours using the Griess Reagent System (Promega) according to manufacturer's instructions. To assess cellular viability, cell confluence was measured using an automated microscope (Cellavista; Roche). Mice were housed and bred according to the Institutional Animal Care and Use Committee guidelines. Primary microglia and astrocytes were isolated from P0-P3 C57BL/6 mouse pups. Cortices from pups were isolated, meninges removed and tissue was dissociated using a 25-gauge needle. Two cortices were plated on each poly-L-lysine coated T-75 flasks in DMEM/F12+10% FBS+1% penicillin/streptomycin. Microglia and astrocyte co-cultures were maintained for 3 weeks, after which microglia were isolated using CD11b magnetic beads (Miltenyi Biotec) according to the manufacturer's instructions. Isolated microglia were allowed to recover for 1-2 days and processed for cellular assays described above. RNA was isolated from cells using RNeasy mini kit from Qiagen. […] was converted to cDNA using SuperScript III reverse transcriptase kit (Life technologies). The cDNA was used to quantify specific targets using SYBR green in Roche Lightcycler 480. ΔΔCt values normalized against the experimental control to determine fold change in mRNA for each sample compared to untreated or vehicle treated control. β-actin or Ubc or both were used as housekeeping genes. Primer sequences were obtained from PrimerBank. Fold change is shown compared to the vehicle treated or untreated cells, unless otherwise noted.

[2] = system: IFNγ/LPS stimulated BV-2 microglia; test: Nitrite assay (Griess) on culture supernatants; format: cell-based, mouse; details: 24 hours
Description: (§1) BV-2 mouse microglia cells were grown in DMEM+10% FBS and THP-1 human monocyte cells were grown in RPMI-40+10% FBS+0.05 mM β-mercaptoethanol at 37° C., 5% CO2. Adherent cells were split using 1×TrypLE (Gibco). For cellular assays, cells were treated with the following concentrations of drugs as indicated in the DMEM without serum: 100-200 μM ganciclovir, 10 ng/ml IFNγ (R&D systems), 100 ng/ml LPS (Sigma-Aldrich), 1-10 μM Fludarabine (Selleckchem), 1 μM Ruxolitinib (Selleckchem), 1 μM TG-101348 (Selleckchem), 1 μM Amlexanox (Tocris bioscience) unless otherwise noted. All experiments were run in triplicates and replicated at least 3 times with cell lines and at least twice with primary microglia. Average data are shown for cell lines and representative data are shown for primary cells. Secreted signaling proteins were measured in supernatants from cultured cells stimulated with GCV and conditioned for 24 hours in the absence of serum using two independent Luminex arrays (Human Immune Monitoring Center, Stanford and Eve technologies, Canada). Nitrite assay was performed on conditioned culture supernatants of cells stimulated with drugs for 24 hours using the Griess Reagent System (Promega) according to manufacturer's instructions. To assess cellular viability, cell confluence was measured using an automated microscope (Cellavista; Roche).

BV-2 microglia [3] = test: Secreted factors analyzed by Luminex array in BV-2 supernatants; format: cell-based, mouse
Description: as §1

BV-2 microglia [4] = test: siRNA knockdown (STING, IRF3, Stat1, Jak2), then RT-PCR for CXCL10; format: cell-based, mouse
Description: Smartpool siRNAs against mouse targets were bought from Dharmacon and transfected in microglia cells using Viromer Blue from Lipocalyx at a concentration of 50 nM according to manufacturer's instructions. Drugs were added cells after 24 hours of transfection and assays done 24 hours after addition of drugs.
RNA was isolated from cells using RNeasy mini kit from Qiagen. DNased RNA was converted to cDNA using SuperScript III reverse transcriptase kit (Life technologies). The cDNA was used to quantify specific targets using SYBR green in Roche Lightcycler 480. ΔΔCt values normalized against the experimental control to determine fold change in mRNA for each sample compared to untreated or vehicle treated control. β-actin or Ubc or both were used as housekeeping genes. Primer sequences were obtained from PrimerBank. Fold change is shown compared to the vehicle treated or untreated cells, unless otherwise noted.

[5] = system: wildtype and STING^gt/gt mice with EAE; test: EAE induction and analysis; format: in vivo, mouse
[6] = system: wildtype and STING^gt/gt mice with EAE; details: mouse model for multiple sclerosis, therapeutic doses equivalent to those in humans (Ding et al. 2014); cited from earlier work
[7] = BV-2 and primary microglia stimulated with IFNγ and LPS
[8] = IFNγ/LPS-stimulated STING^gt/gt primary microglia
[9] = BV-2 culture supernatants, no exogenous stimulation, 24 hours GCV
[10] = BV-2 microglia, siRNA 24 hours, then 200 μM for 24 hours
[11] = STING^gt/gt mice with EAE, day 18
[12] = STING^gt/gt mice, 18 days following disease induction
[13] = cerebella of wildtype mice with EAE, day 18

SMILES: Nc1nc(O)c2ncn(COC(CO)CO)c2n1 [GCV, Ganciclovir]
- CCL2 transcript [1, 7]: almost complete transcriptional inhibition
- iNOS transcript [1, 7]: almost complete transcriptional inhibition
- iNOS and CCL2 transcripts in GCV treated STING^gt/gt microglia [1, 8]: higher
- reduction of inflammatory markers in STING^gt/gt primary microglia [1, 8]: unable to do so
- inflammatory markers in wildtype primary microglia ([1]; IFNγ/LPS-stimulated wildtype primary microglia): reduced
- microglial nitric oxide production (nitrite assay) [2]: reduction
- CCL2 (BV-2 microglia [3]; 100 μM GCV, 24 hours): 28.8 ± 1.08 pg/mL
- IL12p70 (BV-2 microglia [3]; 100 μM GCV, 24 hours): 0.34 ± 0.05 pg/mL
- IL17A (BV-2 microglia [3]; 100 μM GCV, 24 hours): 3.5 ± 0.12 pg/mL
- MCSF (BV-2 microglia [3]; 100 μM GCV, 24 hours): 23.76 ± 3.77 pg/mL
- MIP1β (BV-2 microglia [3]; 100 μM GCV, 24 hours): 537.14 ± 449.94 ng/mL
- MIP2 (BV-2 microglia [3]; 100 μM GCV, 24 hours): 14.77 ± 1.50 pg/mL
- TGFβ (BV-2 microglia [3]; 100 μM GCV, 24 hours): 6.04 ± 0.58 pg/mL
- VEGF (BV-2 microglia [3]; 100 μM GCV, 24 hours): 1.65 ± 0.51 pg/mL
- CCL2 (BV-2 microglia [3]; 200 μM GCV, 24 hours): 28.25 ± 2.19 pg/mL
- IL12p70 (BV-2 microglia [3]; 200 μM GCV, 24 hours): 0.16 ± 0.11 pg/mL
- IL17A (BV-2 microglia [3]; 200 μM GCV, 24 hours): 2.54 ± 1.28 pg/mL
- IL22 (BV-2 microglia [3]; 200 μM GCV, 24 hours): 3.09 ± 2.25 pg/mL
- MCSF (BV-2 microglia [3]; 200 μM GCV, 24 hours): 25.48 ± 8.28 pg/mL
- MIP1β (BV-2 microglia [3]; 200 μM GCV, 24 hours): 4.13 ± 3.36 ng/mL
- MIP2 (BV-2 microglia [3]; 200 μM GCV, 24 hours): 13.02 ± 4.25 pg/mL
- TGFβ (BV-2 microglia [3]; 200 μM GCV, 24 hours): 5.36 ± 3.30 pg/mL
- VEGF (BV-2 microglia [3]; 200 μM GCV, 24 hours): 1.56 ± 0.27 pg/mL
- secreted CCL5 protein (BV-2 microglia [3]; [9]): significantly increasing
- secreted CXCL10 protein (BV-2 microglia [3]; [9]): significantly increasing
- secreted IL-18 protein (BV-2 microglia [3]; [9]): decreasing
- secreted IL-22 protein (BV-2 microglia [3]; [9]): significantly increasing
- secreted TNFα protein (BV-2 microglia [3]; [9]): significantly increasing
- CXCL10 or IFNβ mRNA expression after siRNA knockdown of Stat1 and Jak2 or lack of Stat1 (BV-2 microglia [4]; BV-2 cells (siRNA) or Stat1 knockout primary microglia, 200 μM): significantly reduced
- capacity to induce CXCL10 after siRNA knock down of STING (BV-2 microglia [4]; [10]): to a lesser extent
- potential to induce CXCL10 mRNA after siRNA knockdown of IRF3 (BV-2 microglia [4]; [10]): inhibited
- overall Iba1 immunoreactivity [5, 11]: trend towards reducing
- overall cell proliferation [5, 11]: no reduction
- proliferating T-cells [5, 11]: no reduction
- proliferating microglia [5, 11]: no reduction
- disease severity and incidence compared to untreated mice [5, 12]: not significantly different
- lethality compared to untreated mice [5, 12]: even higher
- effect on EAE in mice lacking STING ([5]; STING^gt/gt mice, GCV 100 mg/kg daily): only partially ameliorated EAE during the early phase of disease
- CD3+BrDU+ proliferating T-cells [5, 13]: did not change
- Iba1+BrDU+ proliferating microglia [5, 13]: significantly decreased
- numbers of BrDU+ proliferating cells [5, 13]: significantly decreased
- numbers of Iba1+ microglia [5, 13]: significantly decreased
- lethality ([5]; wildtype mice, 18 days following disease induction, untreated 20%): 0%
- disease incidence ([5]; wildtype mice, 18 days following disease induction, untreated 100%): 40%
- disease severity (EAE score) ([5]; wildtype mice, GCV 100 mg/kg intra-peritoneally daily from day 3): drastically reduces disease severity
- disease course and pathology of EAE [6]: ameliorates the disease course and pathology
